Reference: PubChem BioAssay (NCI)
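Step 1: Grow cells in 96-well plates. Step 2: Expose to compound for 48 hours at 5 concentrations. Step 3: Interpolate endpoints linearly; if unreached, use highest concentration. The concentration for 50% growth inhibition is given as GI50. TGI marks complete inhibition of growth.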

Assays:
Assay in all cases: growth of human tumour cells (NCI), 48 h
UACC-62 melanoma = tested on: UACC-62 melanoma
OVCAR-4 ovarian = tested on: OVCAR-4 ovarian
BT-549 breast = tested on: BT-549 breast
KM12 colon = tested on: KM12 colon
SK-MEL-5 melanoma = tested on: SK-MEL-5 melanoma
RXF 393 renal = tested on: RXF 393 renal
T-47D breast = tested on: T-47D breast
A498 renal = tested on: A498 renal
COLO 205 colon = tested on: COLO 205 colon
SK-MEL-28 melanoma = tested on: SK-MEL-28 melanoma
NCI-H460 lung = tested on: NCI-H460 lung
HOP-92 NSCLC = tested on: HOP-92 NSCLC
SNB-75 CNS = tested on: SNB-75 CNS
NCI-H23 lung = tested on: NCI-H23 lung
SN12C renal = tested on: SN12C renal
M14 melanoma = tested on: M14 melanoma
SW-620 colon = tested on: SW-620 colon
DU-145 prostate = tested on: DU-145 prostate
OVCAR-3 ovarian = tested on: OVCAR-3 ovarian
U251 CNS = tested on: U251 CNS
NCI-H226 lung = tested on: NCI-H226 lung
SK-MEL-2 melanoma = tested on: SK-MEL-2 melanoma
K-562 leukemia = tested on: K-562 leukemia
A549 NSCLC = tested on: A549 NSCLC
HCT-116 colon = tested on: HCT-116 colon
TK-10 renal = tested on: TK-10 renal
IGROV1 ovarian = tested on: IGROV1 ovarian
ACHN renal = tested on: ACHN renal
UO-31 renal = tested on: UO-31 renal
786-0 renal = tested on: 786-0 renal
CAKI-1 renal = tested on: CAKI-1 renal
SNB-19 CNS = tested on: SNB-19 CNS
NCI/ADR-RES ovarian = tested on: NCI/ADR-RES ovarian
MCF7 breast = tested on: MCF7 breast
MDA-MB-231 breast = tested on: MDA-MB-231 breast
HCC-2998 colon = tested on: HCC-2998 colon
NCI-H522 lung = tested on: NCI-H522 lung
MDA-MB-435 = tested on: MDA-MB-435
SF-295 CNS = tested on: SF-295 CNS
HS 578T breast = tested on: HS 578T breast
MOLT-4 leukemia = tested on: MOLT-4 leukemia
SF-268 CNS = tested on: SF-268 CNS
HCT-15 colon = tested on: HCT-15 colon
HL-60(TB) leukemia = tested on: HL-60(TB) leukemia
LOX IMVI melanoma = tested on: LOX IMVI melanoma
CCRF-CEM leukemia = tested on: CCRF-CEM leukemia
UACC-257 melanoma = tested on: UACC-257 melanoma
OVCAR-8 ovarian = tested on: OVCAR-8 ovarian
RPMI-8226 leukemia = tested on: RPMI-8226 leukemia
SR leukemia = tested on: SR leukemia
PC-3 prostate = tested on: PC-3 prostate
OVCAR-5 ovarian = tested on: OVCAR-5 ovarian
HT29 colon = tested on: HT29 colon
HOP-62 NSCLC = tested on: HOP-62 NSCLC
MALME-3M melanoma = tested on: MALME-3M melanoma

COc1ccc(S(=O)(=O)Nc2cc(/C=C\c3cc(OC)c(OC)c(OC)c3)cc(OC)c2OC)cc1
GI50 (UACC-62 melanoma): 0.0461 µM | TGI (UACC-62 melanoma): 69.4 µM | GI50 (OVCAR-4 ovarian): 0.0842 µM | TGI (OVCAR-4 ovarian): > 100 µM | GI50 (BT-549 breast): 0.0425 µM | TGI (BT-549 breast): 79 µM | GI50 (KM12 colon): 0.0397 µM | TGI (KM12 colon): > 100 µM | GI50 (SK-MEL-5 melanoma): 0.0359 µM | TGI (SK-MEL-5 melanoma): 0.168 µM | GI50 (RXF 393 renal): 0.0401 µM | TGI (RXF 393 renal): 72.4 µM | GI50 (T-47D breast): 5.21 µM | TGI (T-47D breast): > 100 µM | GI50 (A498 renal): 0.0217 µM | TGI (A498 renal): 0.0924 µM | GI50 (COLO 205 colon): 0.0214 µM | TGI (COLO 205 colon): 0.0459 µM | GI50 (SK-MEL-28 melanoma): 0.0765 µM | TGI (SK-MEL-28 melanoma): > 100 µM | GI50 (NCI-H460 lung): 0.0367 µM | TGI (NCI-H460 lung): 17 µM | GI50 (HOP-92 NSCLC): 1.76 µM | TGI (HOP-92 NSCLC): 82.3 µM | GI50 (SNB-75 CNS): 0.0265 µM | TGI (SNB-75 CNS): > 100 µM | GI50 (NCI-H23 lung): 0.0593 µM | TGI (NCI-H23 lung): > 100 µM | GI50 (SN12C renal): 0.0698 µM | TGI (SN12C renal): > 100 µM | GI50 (M14 melanoma): 0.0301 µM | TGI (M14 melanoma): > 100 µM | GI50 (SW-620 colon): 0.0439 µM | TGI (SW-620 colon): > 100 µM | GI50 (DU-145 prostate): 0.0416 µM | TGI (DU-145 prostate): > 100 µM | GI50 (OVCAR-3 ovarian): 0.0345 µM | TGI (OVCAR-3 ovarian): 0.0977 µM | GI50 (U251 CNS): 0.0357 µM | TGI (U251 CNS): > 100 µM | GI50 (NCI-H226 lung): 27.3 µM | TGI (NCI-H226 lung): > 100 µM | GI50 (SK-MEL-2 melanoma): 0.0374 µM | TGI (SK-MEL-2 melanoma): 63.3 µM | GI50 (K-562 leukemia): 0.0272 µM | TGI (K-562 leukemia): 48.2 µM | GI50 (A549 NSCLC): 0.0474 µM | TGI (A549 NSCLC): > 100 µM | GI50 (HCT-116 colon): 0.035 µM | TGI (HCT-116 colon): > 100 µM | GI50 (TK-10 renal): 0.065 µM | TGI (TK-10 renal): 78 µM | GI50 (IGROV1 ovarian): 0.0577 µM | TGI (IGROV1 ovarian): > 100 µM | GI50 (ACHN renal): 0.057 µM | TGI (ACHN renal): 23.2 µM | GI50 (UO-31 renal): 0.0635 µM | TGI (UO-31 renal): 85.3 µM | GI50 (786-0 renal): 0.0579 µM | TGI (786-0 renal): 22.6 µM | GI50 (CAKI-1 renal): 0.0531 µM | TGI (CAKI-1 renal): 30.9 µM | GI50 (SNB-19 CNS): 0.0601 µM | TGI (SNB-19 CNS): > 100 µM | GI50 (NCI/ADR-RES ovarian): 0.0353 µM | TGI (NCI/ADR-RES ovarian): 81.5 µM | GI50 (MCF7 breast): 0.036 µM | TGI (MCF7 breast): > 100 µM | GI50 (MDA-MB-231 breast): 0.0479 µM | TGI (MDA-MB-231 breast): > 100 µM | GI50 (HCC-2998 colon): 0.0391 µM | TGI (HCC-2998 colon): > 100 µM | GI50 (NCI-H522 lung): 0.0197 µM | TGI (NCI-H522 lung): 0.052 µM | GI50 (MDA-MB-435): 0.0211 µM | TGI (MDA-MB-435): 0.0482 µM | GI50 (SF-295 CNS): 0.0311 µM | TGI (SF-295 CNS): > 100 µM | GI50 (HS 578T breast): 0.0452 µM | TGI (HS 578T breast): > 100 µM | GI50 (MOLT-4 leukemia): 0.0495 µM | TGI (MOLT-4 leukemia): > 100 µM | GI50 (SF-268 CNS): 0.0575 µM | TGI (SF-268 CNS): > 100 µM | GI50 (HCT-15 colon): 0.0358 µM | TGI (HCT-15 colon): > 100 µM | GI50 (HL-60(TB) leukemia): 0.0234 µM | TGI (HL-60(TB) leukemia): 0.0635 µM | GI50 (LOX IMVI melanoma): 0.05 µM | TGI (LOX IMVI melanoma): > 100 µM | GI50 (CCRF-CEM leukemia): 0.0329 µM | TGI (CCRF-CEM leukemia): > 100 µM | GI50 (UACC-257 melanoma): 4.1 µM | TGI (UACC-257 melanoma): 98.9 µM | GI50 (OVCAR-8 ovarian): 0.0459 µM | TGI (OVCAR-8 ovarian): > 100 µM | GI50 (RPMI-8226 leukemia): 0.0459 µM | TGI (RPMI-8226 leukemia): 13.2 µM | GI50 (SR leukemia): 0.0352 µM | TGI (SR leukemia): 2.37 µM | GI50 (PC-3 prostate): 0.038 µM | TGI (PC-3 prostate): > 100 µM | GI50 (OVCAR-5 ovarian): 0.0499 µM | TGI (OVCAR-5 ovarian): > 100 µM | GI50 (HT29 colon): 0.0331 µM | TGI (HT29 colon): 0.122 µM | GI50 (HOP-62 NSCLC): 0.0408 µM | TGI (HOP-62 NSCLC): > 100 µM | GI50 (MALME-3M melanoma): 12.6 µM | TGI (MALME-3M melanoma): 97.3 µM
